Measured values published in PMC9046089, “CCNE1 amplification is synthetic lethal with PKMYT1 kinase inhibition” (Nature, 2022).
“And” between values parts separate entries of the source, which are not always exact repeats. Equal values may be shown once. Read-outs that look alike come from different tables or passages of the source. Values belong to the compound of their own block, whether it stands above or below them.

Legend:
SNU8 cells = experiment: Cell proliferation assay (Incucyte growth inhibition); format: cell-based; details: three replicates
Description: (§1) Per cent confluence relative to a non-treated control was used to evaluate growth inhibition induced by test compounds. […] (https://synergyfinder.fimm.fi).

SUM149PT cells = experiment: as above; format: cell-based; details: three replicates
Description: as §1

[1] = system: RPE1-hTERT TP53-/- Cas9 CCNE1-high cells; experiment: as above; format: cell-based
Description: as §1

NUGC3 cells = experiment: as above; format: cell-based; details: three replicates
Description: as §1

[2] = system: RPE1-hTERT TP53-/- Cas9 parental cells; experiment: as above; format: cell-based
Description: as §1

KYSE30 cells = experiment: as above; format: cell-based; details: three replicates
Description: as §1

COV362 cells = experiment: as above; format: cell-based; details: COV362, growth inhibition, three replicates
Description: as §1

OVCAR3 cells = experiment: as above; format: cell-based; details: three replicates
Description: as §1

DOTC24510 cells = experiment: as above; format: cell-based; details: three replicates
Description: as §1

TOV112D cells = experiment: as above; format: cell-based; details: three replicates
Description: as §1

CDK2 = experiment: Immune complex histone H1 kinase assay, IP-CDK2, FT282 CCNE1-high cells; format: cell-based; details: 24 h
Protocol: Protein concentration was determined by Bradford assay (Thermo Fisher Scientific cat. no. 1856209). For immunoprecipitation of kinases, 200 μg of extract was diluted in 750 μl EBN buffer and 10 μg of CDK1 or CDK2 primary antibody agarose bead conjugates were added to the extract and rotated at 4 °C overnight. Immunoprecipitates were pelleted by centrifugation at 2,500g at 4 °C for 5 min and washed 2× in 750 μl EBN followed by 1 ml EB (80 mM β-glycerol phosphate, 15 mM MgCl2, 20 mM EGTA, 1 mg ml^−1 ovalbumin). After the final wash, the immunoprecipitates were resuspended in 500 μl EB and split into two samples. One sample was used for immunoblot analysis and the other used for kinase assays. Following removal of the final wash, immunoprecipitates were resuspended in 11 μl histone H1 kinase assay buffer (80 mM β-glycerol phosphate, 15 mM MgCl2, 20 mM EGTA, 1 mg ml^−1 ovalbumin, 10 mM DTT, 0.15 μg μl^−1 histone H1 (Sigma-Aldrich, cat. no. H1917), 22 μM ATP, 0.05 μCi μl^−1 γ^32P-ATP (Perkin Elmer NEG502A250UC), pH 7.3) and incubated at room temperature for 30 min. Reactions were quenched by addition of 5 μl 6× sample buffer (60% glycerol, 6% SDS, 0.03% bromophenol blue, 1,500 mM Tris-Cl pH 6.8, 60 mM DTT) and resolved by SDS–PAGE. […] 32P-H1 band intensity was quantified using ImageJ v2.0.0.

HCC1569 cells = experiment: Cell proliferation assay (Incucyte growth inhibition, synergy); format: cell-based; details: three replicates
Description: as §1

CDK1 = experiment: Immune complex histone H1 kinase assay, IP-CDK1, FT282 CCNE1-high cells; format: cell-based; details: 24 h; for 32P-labelled histone H1 band intensity, IP-CDK1 kinase assay: 0 nM = 1
Protocol: Protein concentration was determined by Bradford assay (Thermo Fisher Scientific cat. no. 1856209). For immunoprecipitation of kinases, 200 μg of extract was diluted in 750 μl EBN buffer and 10 μg of CDK1 or CDK2 primary antibody agarose bead conjugates were added to the extract and rotated at 4 °C overnight. Immunoprecipitates were pelleted by centrifugation at 2,500g at 4 °C for 5 min and washed 2× in 750 μl EBN followed by 1 ml EB (80 mM β-glycerol phosphate, 15 mM MgCl2, 20 mM EGTA, 1 mg ml^−1 ovalbumin). After the final wash, the immunoprecipitates were resuspended in 500 μl EB and split into two samples. One sample was used for immunoblot analysis and the other used for kinase assays. Following removal of the final wash, immunoprecipitates were resuspended in 11 μl histone H1 kinase assay buffer (80 mM β-glycerol phosphate, 15 mM MgCl2, 20 mM EGTA, 1 mg ml^−1 ovalbumin, 10 mM DTT, 0.15 μg μl^−1 histone H1 (Sigma-Aldrich, cat. no. H1917), 22 μM ATP, 0.05 μCi μl^−1 γ^32P-ATP (Perkin Elmer NEG502A250UC), pH 7.3) and incubated at room temperature for 30 min. Reactions were quenched by addition of 5 μl 6× sample buffer (60% glycerol, 6% SDS, 0.03% bromophenol blue, 1,500 mM Tris-Cl pH 6.8, 60 mM DTT) and resolved by SDS–PAGE. Gels were exposed to a phosphor imaging screen for 1–2 d and imaged using a Typhoon FLA 9500 (GE Healthcare Life Sciences). 32P-H1 band intensity was quantified using ImageJ v2.0.0.

human recombinant PKMYT1 = molecular target: T1, human recombinant PKMYT1 (Homo sapiens, UniProt Q99640); experiment: ADP-Glo kinase assay of PKMYT1 catalytic activity; format: biochemical
T1 construct: full-length human GST–PKMYT1 recombinant protein; GST (N); purchased Thermo Fisher Scientific A33387
T1 sequence (Q99640 1-499): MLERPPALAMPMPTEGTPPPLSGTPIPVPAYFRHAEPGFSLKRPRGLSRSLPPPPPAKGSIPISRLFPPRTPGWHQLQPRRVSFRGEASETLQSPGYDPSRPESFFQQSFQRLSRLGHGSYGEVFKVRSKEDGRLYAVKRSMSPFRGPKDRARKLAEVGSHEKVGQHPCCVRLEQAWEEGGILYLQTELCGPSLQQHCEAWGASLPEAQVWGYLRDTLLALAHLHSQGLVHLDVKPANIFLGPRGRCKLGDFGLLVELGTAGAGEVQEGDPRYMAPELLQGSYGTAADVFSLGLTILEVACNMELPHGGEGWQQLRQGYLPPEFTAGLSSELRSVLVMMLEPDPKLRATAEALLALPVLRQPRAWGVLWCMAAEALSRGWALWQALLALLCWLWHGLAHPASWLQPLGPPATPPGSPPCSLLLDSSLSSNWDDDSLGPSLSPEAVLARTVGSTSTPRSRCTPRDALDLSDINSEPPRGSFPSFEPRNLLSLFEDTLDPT

Structure (SMILES): C=CCn1c(=O)c2cnc(Nc3ccc(N4CCN(C)CC4)cc3)nc2n1-c1cccc(C(C)(C)O)n1 [AZD-1775]
- EC50 (SNU8 cells): 98 nM and 114 nM and 97 nM
- EC50 (SUM149PT cells; Homo sapiens): 0.000211 mM
- EC50 (SUM149PT cells): 0.000232 mM and 0.000196 mM
- EC50 ([1]; Homo sapiens, RPE-1, read-out: RP-6306 EC50 (mM) RPE1 CCNE1 (C2), growth inhibition, three replicates): 0.000113 mM
- EC50 ([1]; read-out: RP-6306 EC50 (mM) RPE1 CCNE1 (C2), growth inhibition, three replicates): 0.00015 mM and 0.000111 mM
- EC50 (NUGC3 cells; Homo sapiens, NUGC-3, growth inhibition): 0.000212 mM
- EC50 (NUGC3 cells; growth inhibition): 0.000239 mM
- EC50 ([2]; Homo sapiens, RPE-1, read-out: RP-6306 EC50 (mM) RPE1 WT, growth inhibition, three replicates): 0.000172 mM
- EC50 ([2]; read-out: RP-6306 EC50 (mM) RPE1 WT, growth inhibition, three replicates): 0.000159 mM and 0.000154 mM
- EC50 (KYSE30 cells; Homo sapiens, KYSE-30, growth inhibition): 0.000437 mM
- EC50 (KYSE30 cells; growth inhibition): 0.000482 mM and 0.000541 mM
- EC50 (COV362 cells): 49 nM
- EC50 (OVCAR3 cells; Homo sapiens, OVCAR-3, growth inhibition): 94 nM
- EC50 (OVCAR3 cells; growth inhibition): 78 nM and 98 nM
- EC50 (DOTC24510 cells; Homo sapiens, DoTc2-4510, growth inhibition): 38 nM
- EC50 (DOTC24510 cells; growth inhibition): 42 nM and 55 nM
- EC50 (TOV112D cells; Homo sapiens): 0.000444 mM
- EC50 (TOV112D cells): 0.00039 mM and 0.000454 mM
- CDK2 kinase activity (CDK2): activation of both kinases
- EC50 (HCC1569 cells; Homo sapiens, HCC1569, growth inhibition): 54 nM
- EC50 (HCC1569 cells; growth inhibition): 51 nM and 56 nM
- 32P-labelled histone H1 band intensity, IP-CDK1 kinase assay (CDK1; AZD-1775 250 nM): 1.298 and 1.203 and 0.7824
- 32P-labelled histone H1 band intensity, IP-CDK1 kinase assay (CDK1; AZD-1775 500 nM): 1.804 and 1.271 and 1.266
- 32P-labelled histone H1 band intensity, IP-CDK1 kinase assay (CDK1; AZD-1775 1000 nM): 2.54 and 1.785 and 1.69
- CDK1 kinase activity (CDK1; FT282 CCNE1-high cells): activation of both kinases

- effect on PKMYT1 catalytic activity (human recombinant PKMYT1; ADP-Glo dose-response): no effect
- PKMYT1 catalytic activity, ADP-Glo signal (human recombinant PKMYT1; c0 (log10 concentration, head mM) 1): 13700
- PKMYT1 catalytic activity, ADP-Glo signal (human recombinant PKMYT1; c0 (log10 concentration, head mM) -0.57777): 15400
- PKMYT1 catalytic activity, ADP-Glo signal (human recombinant PKMYT1; c0 (log10 concentration, head mM) -2.18442): 16550
- PKMYT1 catalytic activity, ADP-Glo signal (human recombinant PKMYT1; c0 (log10 concentration, head mM) -3.8365): 15000
- PKMYT1 catalytic activity, ADP-Glo signal (human recombinant PKMYT1; c0 (log10 concentration, head mM) -5.64386): 14750
- PKMYT1 catalytic activity, ADP-Glo signal (human recombinant PKMYT1; c0 (log10 concentration, head mM) -6.93016): 14350
- PKMYT1 catalytic activity, ADP-Glo signal (human recombinant PKMYT1; c0 (log10 concentration, head mM) -8.53282): 14150
- PKMYT1 catalytic activity, ADP-Glo signal (human recombinant PKMYT1; c0 (log10 concentration, head mM) -10.0955): 14900
- PKMYT1 catalytic activity, ADP-Glo signal (human recombinant PKMYT1; c0 (log10 concentration, head mM) -11.6789): 15800
- PKMYT1 catalytic activity, ADP-Glo signal (human recombinant PKMYT1; c0 (log10 concentration, head mM) -13.2591): 15500
Structure (SMILES): Cc1cnc2c(c1)c(C(N)=O)c(N)n2-c1c(C)cccc1C [RP-6421]
